Data from patent publication US11897880B2, “7,8-dihydrobenzo[e]pyrido[3,4-c]azocine-2,5(3H,6H)-dione derivatives useful as a factor XIa inhibitors” (Janssen Pharmaceutica NV, priority 2021, dated 2024).
Where two headings read alike, the source gives them in different places.

Columns and labels:
human plasma kallikrein = human plasma kallikrein (Homo sapiens, UniProt P03952); test: Kallikrein inhibition assay utilizing a quenched AMC peptide substrate (FLINT); format: biochemical; details: 30 min preincubation, 50 μM Z-Gly-Pro-Arg-AMC, 2 nM kallikrein
human plasma kallikrein, sequence (P03952 391-638 limits assumed): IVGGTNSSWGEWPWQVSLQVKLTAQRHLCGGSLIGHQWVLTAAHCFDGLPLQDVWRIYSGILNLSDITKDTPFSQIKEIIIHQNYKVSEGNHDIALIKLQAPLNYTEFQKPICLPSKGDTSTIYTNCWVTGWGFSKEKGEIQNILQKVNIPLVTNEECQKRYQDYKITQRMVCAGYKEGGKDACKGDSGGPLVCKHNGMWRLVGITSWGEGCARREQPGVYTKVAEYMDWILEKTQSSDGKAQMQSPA
human plasma kallikrein, sequence (P03952 20-390 partner limits assumed): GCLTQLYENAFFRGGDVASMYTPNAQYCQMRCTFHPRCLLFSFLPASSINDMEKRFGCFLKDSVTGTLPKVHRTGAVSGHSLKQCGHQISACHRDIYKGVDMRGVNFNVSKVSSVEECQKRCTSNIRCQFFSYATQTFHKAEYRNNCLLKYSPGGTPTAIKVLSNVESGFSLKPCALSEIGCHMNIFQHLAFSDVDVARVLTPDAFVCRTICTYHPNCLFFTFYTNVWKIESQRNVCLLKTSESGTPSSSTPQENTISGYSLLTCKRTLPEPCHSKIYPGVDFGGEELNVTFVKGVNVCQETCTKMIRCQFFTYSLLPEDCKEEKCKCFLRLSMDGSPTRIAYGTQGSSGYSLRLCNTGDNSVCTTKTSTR
Excerpt: Biological Example 2: Kallikrein Inhibition Assay Utilizing a Quenched AMC Peptide Substrate
A fluorescence intensity (FLINT) based assay was used to monitor inhibition of human plasma kallikrein. The peptide substrate, Z-Gly-Pro-Arg-AMC (Purchased from Bachem; Catalog #1-1150) was chosen based on its relatively low KM for kallikrein which enables running the assay at lower substrate concentrations to control background fluorescence.
The Kallikrein FLINT assay was used with the following Z-Gly-Pro-Arg-AMC assay buffer: 50 mM Tris, pH 7.5, 100 mM NaCl, 5 mM CaCl2), 0.1 mg/mL BSA, 0.03% CHAPS. Assay buffer was prepared by mixing all ingredients fresh. 2× Z-Gly-Pro-Arg-AMC peptide substrate was prepared by diluting 10 mM stock into 1× assay buffer for a 100 μM working concentration (50 μM final concentration). The 2× kallikrein stock solution was prepared by diluting 14.76 μM stock in 1× assay buffer for a 4 nM working stock solution (2 nM final concentration).
Test compound(s) were run in an 11-point, 3-fold serial dilution with a final top compound concentration of 1 μM. Final DMSO in assay was 2%. Plasma kallikrein was pre-incubated for 30-minute with compound and then 50 μM substrate was added to initiate the reaction. The assay was run with kinetic (KIN) reads at 5 min intervals over 30 minutes. The time course was linear using 2 nM kallikrein greater than 30 minutes. More specifically, the assay was run as follows: • 100 nL of 0.1 mM test compound was dispensed into black 384-well non-binding Greiner BioOne 784900 plate for 1 μM final concentration; • 5 μL of 1× assay buffer was dispensed to columns 24 (low control) and 5 μL 2× human kallikrein enzyme solution was dispensed to columns 1-23 (column 23 high control); • the plate was centrifuged with a “cover” plate at 500 rpm for 1 min • the plate was pre-incubated for 30 minutes at room temperature with plate covered; • 5 μL of 2× Z-Gly-Pro-Arg-AMC peptide substrate was dispensed into the entire plate, columns 1-24; • the plate was centrifuged with a “cover” plate at 500 rpm for 1 min; the plate was read monitoring fluorescence intensity on the BMG PHERAStar at room temperature, using fluorescence module 340 nm/440 nm.
Percent inhibition (IC50) curves were generated per compound tested, and data was analyzed using a 4-parameter logistic fit using GeneData Screener. The relative fluorescence unit (RFU) values were normalized to percent inhibition using the following equation: % inhibition=((HC−LC)−(compound−LC)/(HC−LC))*100 where LC—low control=mean signal of human kallikrein enzyme or 100% inhibition of human kallikrein enzyme; HC—high control=mean signal of […]+Z-Gly-Pro-Arg-AMC peptide substrate with DMSO only.
An 11-point dose response curve for the test compound(s) was generated using GENDATA to determine IC50 value based on the following equation: Y=Bottom+(Top−Bottom)/(1+10^((log IC50−X)*HillSlope)) • where Y is the % inhibition in the presence of X inhibitor concentration, Top=high control=mean signal of human kallikrein enzyme+Z-Gly-Pro-Arg-AMC peptide substrate with DMSO only; Bottom=low control−mean signal of no human kallikrein enzyme or 100% inhibition of human kallikrein enzyme; HillSlope—Hill coefficient; and IC50=concentration of compound with 50% inhibition in relation to top/high control.
(§1) Representative compounds of formula (I) of the present invention were tested according to the procedure described in Biological Example 1 and Biological Example 2 above, with results as listed in Table 3, below.

Factor XIa = Factor XIa (Homo sapiens, UniProt P03951); test: Factor XIa inhibition assay utilizing a fluorophore-quencher pair peptide substrate (FLINT); format: biochemical; details: for Ki: read-out: FXIa Ki; for IC50: read-out: FXIa IC50
Factor XIa, sequence (P03951 388-625 limits assumed): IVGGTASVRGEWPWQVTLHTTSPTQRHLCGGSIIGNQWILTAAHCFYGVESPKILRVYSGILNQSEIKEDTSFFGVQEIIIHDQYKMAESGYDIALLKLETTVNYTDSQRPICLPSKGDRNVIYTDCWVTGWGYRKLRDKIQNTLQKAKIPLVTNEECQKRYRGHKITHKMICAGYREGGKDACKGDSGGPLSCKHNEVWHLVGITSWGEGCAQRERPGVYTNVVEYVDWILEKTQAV
Factor XIa, sequence (P03951 19-387 partner limits assumed): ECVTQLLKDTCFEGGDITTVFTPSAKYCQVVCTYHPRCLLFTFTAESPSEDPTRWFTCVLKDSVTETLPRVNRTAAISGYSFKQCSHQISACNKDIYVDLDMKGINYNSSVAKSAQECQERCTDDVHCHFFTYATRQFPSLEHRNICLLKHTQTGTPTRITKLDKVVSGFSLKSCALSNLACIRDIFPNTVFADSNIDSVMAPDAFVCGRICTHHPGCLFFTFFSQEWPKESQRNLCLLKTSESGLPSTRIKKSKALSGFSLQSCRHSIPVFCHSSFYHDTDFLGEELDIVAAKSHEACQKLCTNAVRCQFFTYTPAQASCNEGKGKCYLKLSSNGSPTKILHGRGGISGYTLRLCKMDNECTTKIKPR
Excerpt: Biological Example 1: Factor XIa Inhibition Assay Utilizing a Fluorophore-Quencher Pair Peptide Substrate
A fluorescence intensity (FLINT) based assay was used to monitor inhibition of Factor XIa. The peptide substrate, 5Fam-KLTRAETV-K5Tamra (purchased from New England Peptide) was chosen based on the FXI sequence. Conversion of zymogen FXI to its activated form, FXIa, occurs by proteolytic cleavage by […] at two sites, Arg146 and Arg180. The custom peptide used in this assay was based on the Arg146 cleavage site of FXI. The peptide substrate was designed with a fluorophore-quencher pair, where the fluorescence is quenched until FXIa cleaves the 8-mer peptide after the Arg residue.
The Factor XIa FLINT assay was used with the following 5Fam-KLTRAETV-K5Tamra assay buffer: 50 mM Tris, pH 7.5, 100 mM NaCl, 5 mM CaCl2), 0.1 mg/mL BSA, 0.03% CHAPS. Assay buffer was prepared by mixing all ingredients fresh. 5Fam-KLTRAETV-K5Tamra peptide substrate was first prepared at 10 mM in 100% DMSO, then diluted to 3 mM in 100% DMSO. Assay buffer was then added directly to the 3 mM stock of substrate to prepare the 30 μM 2× working concentration (15 μM final concentration). The 2× Factor XIa stock solution was prepared by diluting 6.562 μM stock in 1× assay buffer for a […].
Test compound(s) were run in an 11-point, 3-fold serial dilution with a final top compound concentration of 100 nM. Final DMSO in assay was 2%. FXIa was preincubated with compound for 30-minutes and then substrate was added to initiate the reaction. The assay was run with kinetic (KIN) reads at 5 min intervals over 30 minutes. The time course was linear using […] FXIa greater than 30 minutes. More specifically, the assay was run as follows: • 100 nL of 0.01 mM test compound was dispensed into black 384-well non-binding Greiner BioOne 784900 plate for 0.1 μM final concentration; • 5 μL of 1× assay buffer was dispensed to column 24 (low control) and 5 μL 2× Factor XIa solution was dispensed to columns 1-23 (column 23 high control); • the plate was centrifuged with a “cover” plate at 500 rpm for 1 min • the plate was pre-incubated for 30 minutes at room temperature with plate covered; • 5 μL of 2×5Fam-KLTRAETV-K5Tamra peptide substrate was dispensed into the entire plate, columns 1-24; • the plate was centrifuged with a “cover” plate at 500 rpm for 1 min; • the plate was read monitoring fluorescence intensity on the BMG PHERAStar at room temperature, using fluorescence module 485 nm/520 nm.
Percent inhibition (IC50) curves were generated per compound tested, and data was analyzed using a 4-parameter logistic fit using GeneData Screener. The relative fluorescence unit (RFU) values were normalized to percent inhibition using the following equation: % inhibition=((HC−LC)−(compound−LC)/(HC−LC))*100
where LC−low control=mean signal of no Factor XIa or 100% inhibition of Factor XIa; HC−high control=mean signal of Factor XIa+5Fam-KLTRAETV-K5Tamra peptide substrate with DMSO only.
An 11-point dose response curve for the test compound(s) was generated using GENDATA to determine IC50 value based on the following equation: Y=Bottom+(Top−Bottom)/(1+10^((log IC50−X)*HillSlope))
where Y is the % inhibition in the presence of X inhibitor concentration, Top=high control=mean signal of Factor XIa+5Fam-KLTRAETV-K5Tamra peptide substrate with DMSO only; Bottom=low control−mean signal of no Factor XIa or 100% inhibition of Factor XIa; HillSlope−Hill coefficient; and IC50=concentration of compound with 50% inhibition in relation to top/high control.
as §1

[1] = cells that print μM themselves in the nM column
[2] = cells that print μM themselves in the nM column, same assay conditions
[3] = 30 min preincubation, 5Fam-KLTRAETV-K5Tamra substrate 15 μM final, kinetic reads

| Structure (SMILES) | IC50 (human plasma kallikrein) [nM] | Ki (Factor XIa; [1]) [µM] | IC50 (Factor XIa; [2]) [µM] | IC50 (Factor XIa; [3]) [µM] | Ki (Factor XIa) [µM] |
| --- | --- | --- | --- | --- | --- |
| Cn1ncc(-c2cnc(C(CC3CC3)n3cc4c(cc3=O)-c3c(ccc(Cl)c3F)CC3(CC3)NC4=O)[nH]2)cc1=O (single isomer, unassigned) [Compound 58, (R*)-11-chloro-3-(2-cyclopropyl-1-(5-(1-methyl-6-oxo-1,6-dihydropyridazin-4-yl)-1H-imidazol-2-yl)ethyl)-12-fluoro-3H-spiro[benzo[e]pyrido[3,4-c]azocine-7,1′-cyclopropane]-2,5(6H,8H)-dione] | > 10000 | > 5 | > 10 | – | – |
| Cn1ncc(-c2cnc(C(CC3CC3)n3cc4c(cc3=O)-c3c(ccc(Cl)c3F)CC3(CC3)NC4=O)[nH]2)cc1=O (single isomer, unassigned) [Compound 59, (S*)-11-chloro-3-(2-cyclopropyl-1-(5-(1-methyl-6-oxo-1,6-dihydropyridazin-4-yl)-1H-imidazol-2-yl)ethyl)-12-fluoro-3H-spiro[benzo[e]pyrido[3,4-c]azocine-7,1′-cyclopropane]-2,5(6H,8H)-dione] | > 10000 | 2.19 | 4.39 | – | – |
| Cn1cc(-c2cnc(C(CC3CC3)n3cc4c(cc3=O)-c3c(ccc(Cl)c3F)CC3(CC3)NC4=O)[nH]2)ccc1=O (single isomer, unassigned) [Compound 60, (R*)-11-chloro-3-(2-cyclopropyl-1-(5-(1-methyl-6-oxo-1,6-dihydropyridin-3-yl)-1H-imidazol-2-yl)ethyl)-12-fluoro-3H-spiro[benzo[e]pyrido[3,4-c]azocine-7,1′-cyclopropane]-2,5(6H,8H)-dione] | > 10000 | ~4.81 | ~9.61 | – | – |
| COC(=O)Nc1ccc(-c2cnc(C(CC3CC3)n3cc4c(cc3=O)-c3c(ccc(Cl)c3F)CC3(CC3)NC4=O)[nH]2)cc1 (single isomer, unassigned) [Compound 62, Methyl (R*)-(4-(2-(1-(11-chloro-12-fluoro-2,5-dioxo-2,5,6,8-tetrahydro-3H-spiro[benzo[e]pyrido[3,4-c]azocine-7,1′-cyclopropan]-3-yl)-2-cyclopropylethyl)-1H-imidazol-5-yl)phenyl)carbamate] | 5370 | – | – | 0.0486 | 0.0243 |
| Cn1cc(-c2cnc(C(CC3CC3)n3cc4c(cc3=O)-c3c(ccc(Cl)c3F)CC3(CC3)NC4=O)[nH]2)ccc1=O (single isomer, unassigned) [Compound 63, (S*)-11-chloro-3-(2-cyclopropyl-1-(5-(1-methyl-6-oxo-1,6-dihydropyridin-3-yl)-1H-imidazol-2-yl)ethyl)-12-fluoro-3H-spiro[benzo[e]pyrido[3,4-c]azocine-7,1′-cyclopropan]-2,5(6H,8H)-dione] | > 10000 | – | 1.16 | – | 0.578 |
| O=C1NC2(CC2)Cc2ccc(Cl)c(F)c2-c2cc(=O)n(C(CC3CC3)c3ncc(-c4ccc(F)cc4)[nH]3)cc21 (single isomer, unassigned) [Compound 64, (R*)-11-chloro-3-(2-cyclopropyl-1-(5-(4-fluorophenyl)-1H-imidazol-2-yl)ethyl)-12-fluoro-3H-spiro[benzo[e]pyrido[3,4-c]azocine-7,1′-cyclopropane]-2,5(6H,8H)-dione] | > 10000 | – | 1.13 | – | 0.564 |
| O=C1NC2(CC2)Cc2ccc(Cl)c(F)c2-c2cc(=O)n(C(CC3CC3)c3ncc(-c4ccc(F)cc4)[nH]3)cc21 (single isomer, unassigned) [Compound 65, (S*)-11-chloro-3-(2-cyclopropyl-1-(5-(4-fluorophenyl)-1H-imidazol-2-yl)ethyl)-12-fluoro-3H-spiro[benzo[e]pyrido[3,4-c]azocine-7,1′-cyclopropane]-2,5(6H,8H)-dione] | 5720 | – | – | 0.102 | 0.0508 |
| O=C1NC2(CC2)Cc2ccc(Cl)c(F)c2-c2cc(=O)n(C(CC3CC3)c3ncc(-c4ccncc4)[nH]3)cc21 (single isomer, unassigned) [Compound 66, (R*)-11-chloro-3-(2-cyclopropyl-1-(5-(pyridin-4-yl)-1H-imidazol-2-yl)ethyl)-12-fluoro-3H-spiro[benzo[e]pyrido[3,4-c]azocine-7,1′-cyclopropane]-2,5(6H,8H)-dione] | > 10000 | – | – | 0.183 | 0.0917 |
| O=C1NC2(CC2)Cc2ccc(Cl)c(F)c2-c2cc(=O)n([C@@H](CC3CC3)c3ncc(-c4ccncc4)[nH]3)cc21 (single isomer, unassigned) [Compound 67, (S*)-11-chloro-3-(2-cyclopropyl-1-(5-(pyridin-4-yl)-1H-imidazol-2-yl)ethyl)-12-fluoro-3H-spiro[benzo[e]pyrido[3,4-c]azocine-7,1′-cyclopropane]-2,5(6H,8H)-dione] | 1390 | – | – | 0.0129 | 0.0064 |
